Reference: patent US5780620A, “Non-reducing oligosaccharides and their production and use” (Kabushiki Kaisha Hayashibara Seibutsu Kagaku Kenkyujo, priority 1993, dated 1998)
Converted amounts (≈) assume the structure as drawn.

Tests used:
[1] = Reducing power by the Somogyi-Nelson method; type: physicochemical
Protocol: Thereafter these high-purity saccharide preparations were tested for reducing power with the Somogyi-Nelson method and their reducing powers were represented in terms of DE.

[2] = Acute toxicity in mice upon oral administration; type: in vivo; conditions: mouse, in vivo, acute
Protocol: (§1) High-purity maltosyl maltoside, maltotriosyl maltoside and maltotriosyl maltotrioside prepared by the method in Experiment B-1 were tested for acute toxicity in mice upon oral administration.

[3] = tested on: mice; test: Acute toxicity in mice upon oral administration; type: in vivo; conditions: for death: maximum administrable dose
Protocol: as §1

[4] = Hygroscopicity of crystalline maltotriosyl maltotrioside; type: physicochemical; conditions: varies depending on purity
[5] = Solubility of crystals in water; type: physicochemical; conditions: purity 99.0%, 25° C. water
Protocol: An alpha-D-maltotriosyl alpha-D-maltotrioside (Substance 3), purity of 97% or higher, prepared by the method in Experiment B-1, was decolored, deionized and concentrated to 70% in usual manner and the concentrate was transferred in a beaker and allowed to stand in 4° C. chilled room for 2 months leading to eduction of crystals. The crystals were centrifugally collected and washed with a minimum amount of water, thus obtaining crystals with a purity of 99.0%.
The physicochemical properties of the crystals as tested were as follows:
Relatively high, about 91 g being soluble in 100 ml of 25° C. water.

With `OC[C@H]1O[C@H](O[C@H]2O[C@H](CO)[C@@H](O[C@H]3O[C@H](CO)[C@@H](O)[C@H](O)[C@H]3O)[C@H](O)[C@H]2O)[C@H](O)[C@@H](O)[C@@H]1O` [PI, alpha-glucosyl trehalose] the “DE (reducing power)” value [1] was 0.83.
For `OC[C@H]1O[C@H](O[C@H]2O[C@H](CO)[C@@H](O[C@H]3O[C@H](CO)[C@@H](O[C@H]4O[C@H](CO)[C@@H](O)[C@H](O)[C@H]4O)[C@H](O)[C@H]3O)[C@H](O)[C@H]2O)[C@H](O)[C@@H](O)[C@@H]1O` [PII, alpha-maltosyl trehalose], the “DE (reducing power)” value [1] was 0.35.
With `OC[C@H]1O[C@H](O[C@H]2O[C@H](CO)[C@@H](O[C@H]3O[C@H](CO)[C@@H](O[C@H]4O[C@H](CO)[C@@H](O[C@H]5O[C@H](CO)[C@@H](O)[C@H](O)[C@H]5O)[C@H](O)[C@H]4O)[C@H](O)[C@H]3O)[C@H](O)[C@H]2O)[C@H](O)[C@@H](O)[C@@H]1O` [PIII, alpha-maltotriosyl trehalose] the “DE (reducing power)” value [1] was 0.10.
For `OC[C@H]1O[C@H](O[C@H]2O[C@H](CO)[C@@H](O[C@H]3O[C@H](CO)[C@@H](O[C@H]4O[C@H](CO)[C@@H](O[C@H]5O[C@H](CO)[C@@H](O[C@H]6O[C@H](CO)[C@@H](O)[C@H](O)[C@H]6O)[C@H](O)[C@H]5O)[C@H](O)[C@H]4O)[C@H](O)[C@H]3O)[C@H](O)[C@H]2O)[C@H](O)[C@@H](O)[C@@H]1O` [PIV, alpha-maltotetraosyl trehalose], the “DE (reducing power)” value [1] was 0.27.
In the case of `OC[C@H]1O[C@H](O[C@H]2O[C@H](CO)[C@@H](O[C@H]3O[C@H](CO)[C@@H](O[C@H]4O[C@H](CO)[C@@H](O[C@H]5O[C@H](CO)[C@@H](O[C@H]6O[C@H](CO)[C@@H](O[C@H]7O[C@H](CO)[C@@H](O)[C@H](O)[C@H]7O)[C@H](O)[C@H]6O)[C@H](O)[C@H]5O)[C@H](O)[C@H]4O)[C@H](O)[C@H]3O)[C@H](O)[C@H]2O)[C@H](O)[C@@H](O)[C@@H]1O` [PV, alpha-maltopentaosyl trehalose], the “DE (reducing power)” value [1] was 0.23.
For `OC[C@H]1O[C@H](O[C@H]2[C@H](O)[C@@H](O)[C@@H](O[C@H]3O[C@H](CO)[C@@H](O[C@H]4O[C@H](CO)[C@@H](O)[C@H](O)[C@H]4O)[C@H](O)[C@H]3O)O[C@@H]2CO)[C@H](O)[C@@H](O)[C@@H]1O` [maltosyl maltoside, O-alpha-D-glucopyranosyl-(1→4)-alpha-D-glucopyranosyl alpha-D-maltoside], the LD50 [2] was ≥ 50000 mg/kg, the acute toxicity [3] was “low intoxicity” and the death [3] was “no death was observed”.
For `OC[C@H]1O[C@H](O[C@H]2[C@H](O)[C@@H](O)[C@@H](O[C@H]3O[C@H](CO)[C@@H](O[C@H]4O[C@H](CO)[C@@H](O[C@H]5O[C@H](CO)[C@@H](O)[C@H](O)[C@H]5O)[C@H](O)[C@H]4O)[C@H](O)[C@H]3O)O[C@@H]2CO)[C@H](O)[C@@H](O)[C@@H]1O` [maltotriosyl maltoside, O-alpha-D-glucopyranosyl-(1→4)-O-alpha-D-glucopyranosyl-(1→4)-alpha-D-glucopyranosyl alpha-D-maltoside], the LD50 [2] was ≥ 50000 mg/kg, the acute toxicity [3] was “low intoxicity” and the death [3] was “no death was observed”.
With `OC[C@H]1O[C@H](O[C@H]2[C@H](O)[C@@H](O)[C@@H](O[C@H]3[C@H](O)[C@@H](O)[C@@H](O[C@H]4O[C@H](CO)[C@@H](O[C@H]5O[C@H](CO)[C@@H](O[C@H]6O[C@H](CO)[C@@H](O)[C@H](O)[C@H]6O)[C@H](O)[C@H]5O)[C@H](O)[C@H]4O)O[C@@H]3CO)O[C@@H]2CO)[C@H](O)[C@@H](O)[C@@H]1O` [maltotriosyl maltotrioside, O-alpha-D-glucopyranosyl-(1→4)-O-alpha-D-glucopyranosyl-(1→4)-alpha-D-glucopyranosyl alpha-D-maltotrioside] the hygroscopicity ([4]; listed as crystalline alpha-D-maltotriosyl alpha-D-maltotrioside) was “very weak hygroscopicity”, the hygroscopicity ([4]; listed as crystalline maltotriosyl maltotrioside) was “substantially non-hygroscopic” and the LD50 [2] was ≥ 50000 mg/kg. The acute toxicity [3] was “low intoxicity”, the death [3] was “no death was observed” and the solubility [5] was ~910 mg/mL (≈ 918 mM).
